Results taken from the supplement of paper PMC10307832.

Legend:
Test in all cases: relative viability (nuclei count vs DMSO), 5 days (fraction); higher = more cells survive
[1] = compound: CC(C)CCN1c2nc(Nc3cc(F)c(O)c(F)c3)ncc2N(C)C(=O)C1C [BI-D1870] + Cc1nc(NC(=O)N2CCC[C@H]2C(N)=O)sc1-c1ccnc(C(C)(C)C(F)(F)F)c1 [Alpelisib] (partner 2 µM)
Summary of the method: (§1)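 Lung cancer cell lines in 1536-well plates were dosed by pin tool the day after seeding, either with one drug alone or with a fixed anchor-drug dose plus five library-drug doses (not always all listed) in √10 steps. After 5 days, cells were fixed and their nuclei stained in one step (final 0.05% Triton X-100, 1% formaldehyde, 1 ug/ml Hoechst), then counted on 4× images. Relative viability is the nuclei count in treated wells divided by that in vehicle wells. Values are medians of duplicate plates.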

[2] = compound: O=c1ncccn1[C@@H]1O[C@H](CO)[C@@H](O)[C@H]1O [Zebularine] + CS(=O)(=O)N1CCN(Cc2cc3nc(-c4cccc5[nH]ncc45)nc(N4CCOCC4)c3s2)CC1 [Pictilisib] (partner 1 µM)
Summary of the method: as §1

[3] = compound: CC(C)CCN1c2nc(Nc3cc(F)c(O)c(F)c3)ncc2N(C)C(=O)C1C [BI-D1870] + CC(=O)c1c(C)c2cnc(Nc3ccc(N4CCNCC4)cn3)nc2n(C2CCCC2)c1=O [Palbociclib] (partner 0.5 µM)
Summary of the method: as §1

[4] = compound: O=c1ncccn1[C@@H]1O[C@H](CO)[C@@H](O)[C@H]1O [Zebularine] + Nc1nc2[nH]cc(CCc3ccc(C(=O)N[C@@H](CCC(=O)O)C(=O)O)cc3)c2c(=O)[nH]1 [Pemetrexed] (partner 0.2 µM)
Summary of the method: as §1

Cell Line | relative viability ([1]; first compound 0.04 µM) | relative viability ([1]; first compound 0.1265 µM) | relative viability ([1]; first compound 0.4 µM) | relative viability ([1]; first compound 1.265 µM) | relative viability ([1]; first compound 4 µM) | relative viability ([2]; first compound 1 µM) | relative viability ([2]; first compound 3.162 µM) | relative viability ([2]; first compound 10 µM) | relative viability ([2]; first compound 31.62 µM) | relative viability ([2]; first compound 100 µM) | relative viability ([3]; first compound 0.04 µM) | relative viability ([3]; first compound 0.1265 µM) | relative viability ([3]; first compound 0.4 µM) | relative viability ([3]; first compound 1.265 µM) | relative viability ([3]; first compound 4 µM) | relative viability ([4]; first compound 1 µM) | relative viability ([4]; first compound 3.162 µM) | relative viability ([4]; first compound 10 µM) | relative viability ([4]; first compound 31.62 µM) | relative viability ([4]; first compound 100 µM)
LK-2 | 1.22 | 1.11 | 1.11 | 1.32 | 0.608 | 0.617 | 0.747 | 0.266 | 0.383 | 0.36 | 0.803 | 0.842 | 0.598 | 0.701 | 0.672 | 0.321 | 0.298 | 0.173 | 0.253 | 0.131
NCI-H2126 | 0.749 | 0.786 | 0.781 | 0.759 | 0.723 | 0.544 | 0.434 | 0.535 | 0.495 | 0.43 | 0.369 | 0.4 | 0.38 | 0.33 | 0.357 | 0.635 | 0.487 | 0.592 | 0.453 | 0.348
NCI-H3122 | 0.721 | 0.643 | 0.724 | 0.852 | 0.749 | 0.669 | 0.575 | 0.575 | 0.613 | 0.593 | 0.187 | 0.176 | 0.211 | 0.267 | 0.216 | 0.189 | 0.183 | 0.175 | 0.225 | 0.225
NCI-H1975 | 0.646 | 0.572 | 0.518 | 0.55 | 0.34 | 0.305 | 0.313 | 0.291 | 0.253 | 0.175 | 0.785 | 0.521 | 0.552 | 0.623 | 0.456 | 0.323 | 0.283 | 0.235 | 0.206 | 0.2
NCI-H1944 | 0.907 | 0.803 | 0.817 | 0.927 | 0.861 | 0.375 | 0.363 | 0.325 | 0.41 | 0.347 | 0.335 | 0.308 | 0.308 | 0.332 | 0.33 | 0.696 | 0.604 | 0.614 | 0.573 | 0.357
LU99A | 0.621 | 0.492 | 0.482 | 0.565 | 0.489 | 0.329 | 0.305 | 0.324 | 0.283 | 0.198 | 0.431 | 0.363 | 0.387 | 0.37 | 0.331 | 0.182 | 0.236 | 0.162 | 0.134 | 0.146
SW 1573 | 0.934 | 0.64 | 0.723 | 0.794 | 0.661 | 0.576 | 0.505 |  | 0.471 | 0.377 | 0.435 | 0.347 | 0.332 | 0.25 | 0.17 | 0.798 | 0.854 |  | 0.855 | 0.522
NCI-H2347 | 1.07 | 0.984 | 0.816 | 1.14 | 0.848 | 0.8 | 0.529 | 0.439 | 0.558 | 0.462 | 0.385 | 0.426 | 0.407 | 0.453 | 0.4 | 0.459 | 0.466 | 0.402 | 0.361 | 0.335
NCI-H1299 | 1.05 | 1.04 | 1.07 | 1.15 | 0.993 | 0.75 | 0.761 | 0.543 | 0.739 | 0.264 |  |  |  |  |  |  |  |  |  | 
NCI-H727 | 0.591 | 0.448 | 0.526 | 0.63 | 0.445 | 0.385 | 0.22 | 0.529 | 0.373 | 0.353 | 0.594 | 0.579 | 0.648 | 0.64 | 0.66 |  |  |  |  | 
ABC-1 | 1.18 | 0.972 | 1.12 | 1.19 | 0.829 | 0.62 | 0.326 | 0.633 | 0.564 | 0.439 | 0.973 | 0.708 | 0.667 | 0.849 | 0.679 |  |  |  |  | 
NCI-H1650 |  |  |  |  |  | 0.72 | 0.447 |  | 0.839 | 0.488 | 0.372 | 0.316 | 0.338 | 0.321 | 0.335 | 0.381 | 0.35 | 0.387 | 0.523 | 0.33
ChaGo-K-1 |  |  |  |  |  | 0.896 | 0.557 | 0.466 | 0.447 | 0.27 | 0.907 | 0.876 | 0.887 | 0.978 | 0.949 | 0.269 | 0.257 | 0.254 | 0.242 | 0.203
SW 900 |  |  |  |  |  |  |  |  |  |  | 0.697 | 0.478 | 0.511 | 0.536 | 0.517 | 0.534 | 0.483 |  | 0.53 | 0.41
NCI-H596 | 0.456 | 0.487 | 0.43 | 0.511 | 0.512 | 0.304 | 0.373 | 0.361 | 0.42 | 0.362 |  |  |  |  |  | 0.478 | 0.513 | 0.428 | 0.42 | 0.494
NCI-H1563 | 0.946 | 0.863 | 0.982 | 0.897 | 0.945 | 0.645 | 0.607 | 0.636 | 0.674 | 0.706 |  |  |  |  |  | 0.896 | 0.717 | 0.689 | 0.728 | 0.791
A549 | 0.907 | 0.639 | 0.891 | 0.609 | 0.477 | 0.626 | 0.482 |  | 0.619 | 0.209 |  |  |  |  |  |  |  |  |  | 
NCI-H2342 |  |  |  |  |  |  |  |  |  |  | 0.508 | 0.511 | 0.528 | 0.528 | 0.559 | 0.795 | 0.73 | 0.572 | 0.749 | 0.628
NCI-H522 |  |  |  |  |  |  |  |  |  |  | 1.03 | 1.06 | 0.943 | 0.975 | 0.788 | 0.888 | 1.1 | 0.967 | 1.03 | 0.95
IA-LM | 0.687 | 0.673 | 0.759 | 0.765 | 0.446 | 0.394 | 0.325 |  | 0.37 | 0.292 |  |  |  |  |  |  |  |  |  | 
EBC-1 | 0.925 | 0.625 | 0.786 | 0.475 | 0.297 | 0.338 | 0.348 | 0.311 | 0.387 | 0.303 |  |  |  |  |  |  |  |  |  | 
